What is called IC50 is the midpoint of a concentration-inhibition curve. High values mean weaker potency, low ones greater potency.

Data set [1] addresses T1, wt human LRRK2, catalytic site (Homo sapiens, UniProt Q5S007).
T1 construct: wt human LRRK2, catalytic site, catalytic site (ThermoFisher/USA); purchased ThermoFisher
Put plainly: TR-FRET LanthaScreen Tb Kinase Activity Assay, LRRK2 inhibition. Format: biochemical. The settings on record: 2 nM wt human LRRK2, 400 nM peptide, 38 μM ATP. An outline of the steps: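 Fluorescein-ERM (LRRKtide) peptide (400 nM) phosphorylated by 2 nM wt human LRRK2 catalytic site with 38 μM ATP in 1× Kinase Buffer A, 120 min at room temperature after 15 min compound–kinase preincubation. EDTA plus Tb-anti-pLRRKtide antibody added, read after 60 min; inhibition from TR-FRET emission ratios.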

Data set [2] can be described thus: Brain penetration (Kp,uu) in CD-1 mice after single IV bolus, with plasma and brain binding by equilibrium dialysis. Format: in vivo. The following applies: mouse, brain and plasma (unbound brain/unbound plasma), male CD-1 mice, single IV bolus 1 mg/kg. The protocol: The compounds disclosed herein were tested on CD-1 mice for brain penetration (Kp, uu) according to the following procedures.
Nine male CD-1 mice were administered TEST COMPOUND by single intravenous bolus administration at 1 mg/kg. The vehicle used for IV study was 5% DMSO, 5% solutol, 20% PEG300 and 70% water. The detailed dosing and sampling regimens are described in the following tables.
The body weights were in the range from 28.81 to 31.25 g for males on the first dosing day. All animals received a single intravenous bolus administration of TEST COMPOUND from the tail vein.
Each blood collection (about 0.06 mL per time point) was performed from saphenous vein of each animal into pre-chilled commercial K2-EDTA tubes as anti-coagulant and placed on wet ice until centrifugation.
Brain tissue was homogenized using homogenizing buffer (15 mM PBS (pH7.4): MeOH=2:1) at the ratio of 1:9 (1 g tissue with 9 mL buffer, the dilution ratio is 10). The tissue homogenate was kept at −60° C. or lower until LC-MS/MS analysis.
The concentrations of TEST COMPOUND in plasma and brain were determined by using an LC-MS/MS method.
The plasma and brain concentration of TEST COMPOUND in study animals was subjected to a non-compartmental pharmacokinetic analysis by using the Phoenix WinNonlin software program (version 6.3 or above, Pharsight). The linear/log trapezoidal rule was applied in obtaining the PK parameters.
Mouse Kp, uu=(% free in mouse brain*concentration in mouse brain)/(% free in mouse plasma*concentration in mouse plasma)
The dialysis apparatus was assembled according to the manufacturer's instruction. Each Cell was filled with 120 μL of spiked plasma sample and dialyzed against equal volume of dialysis buffer (PBS). The assay was performed in duplicate. The dialysis plates were sealed and incubated in an incubator at 37° C. with 5% CO2 and rotated at 100 rpm for 6 hours. At the end of incubation, the seals were removed and 50 μL of samples from both buffer and plasma chambers were transferred to a 96-well plate.
The dialysis apparatus was assembled according to the manufacturer's instruction. Each Cell was filled with 150 μL of brain homogenate sample and dialyzed against equal volume of dialysis buffer (PBS). The assay was performed in duplicate. The dialysis plates were sealed and incubated in an incubator at 37° C. with 5% CO2 and rotated at 100 rpm for 6 hours. At the end of incubation, the seals were removed and 50 μL of samples from both buffer and brain homogenate chambers were transferred into separate tubes on a plate.

Data set [3] concerns Caco-2 cells. As to the kind of experiment: Caco-2 bidirectional permeability. Format: in vitro ADME. The following applies: for Caco-2 ER: Efflux Ratio=Papp(BA)/Papp(AB); for Caco-2 A2B (10^−6 cm/s): apical to basolateral; for Caco-2 A2B (10^−6 cm/s) / Caco-2 B2A (10^−6 cm/s): 2 hours, pH 7.4; for Caco-2 B2A (10^−6 cm/s): basolateral to apical. In a few lines:
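Caco-2 monolayers were grown 21–28 days on PET inserts and run in duplicate in HBSS with 10 mM HEPES, pH 7.4. Test compound was dosed bidirectionally at […] for 2 h at 37 °C; quantification was by LC-MS/MS. Papp and efflux ratio (B-A/A-B) were calculated, with lucifer yellow monolayer integrity checks.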
A general note: Caco-2 cells form a polarised layer with tight junctions and transporters.

Each structure is given as a SMILES string.

T1 sequence (Q5S007 1879-2138 limits assumed): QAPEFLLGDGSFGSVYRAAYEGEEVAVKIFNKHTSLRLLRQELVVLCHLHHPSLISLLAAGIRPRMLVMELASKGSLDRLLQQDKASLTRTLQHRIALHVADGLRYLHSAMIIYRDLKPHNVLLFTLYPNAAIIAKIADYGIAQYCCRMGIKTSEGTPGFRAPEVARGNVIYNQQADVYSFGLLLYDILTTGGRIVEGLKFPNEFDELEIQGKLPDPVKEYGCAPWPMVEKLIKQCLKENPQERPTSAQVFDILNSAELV

Turning to `Fc1cccc(F)c1C1=Nc2c(Cl)n[nH]c2-c2cc(N3CCOCC3)ccc2N1` (single isomer, unassigned) [Example 35, 4-(3-chloro-5-(2,6-difluorophenyl)-1,6-dihydrobenzo[d]pyrazolo[3,4-f][1,3]diazepin-9-y1)morpholine], the IC50 in data set [1] is less than 1 nM. In data set [2], the Kp uu is less than 0.1. Besides, in data set [3], the “Caco-2 ER” value was “L (L (Likely)”: ER≥2.5)”, the “Caco-2 A2B (10^−6 cm/s)” value is on record as “H (H (High permeability)”: A2B (B2A)>5)” and the “Caco-2 B2A (10^−6 cm/s)” value was “H (H (High permeability)”: A2B (B2A)>5)”.

On to `Cc1n[nH]c2c1N=C(c1c(F)cccc1F)Nc1ccc(N3CCO[C@H](C(C)(C)O)C3)cc1-2` (single isomer, unassigned) [Example 36], for which the IC50 in data set [1] lay within 1 to 100 nM. Besides, the Kp uu in data set [2] was less than 0.1. In data set [3], the “Caco-2 ER” value is on record as “L (L (Likely)”: ER≥2.5)”, the “Caco-2 A2B (10^−6 cm/s)” value is “M (M (Moderate permeability)”: 1≤A2B (B2A)≤5)” and the “Caco-2 B2A (10^−6 cm/s)” value is recorded as “H (H (High permeability)”: A2B (B2A)>5)”.

The compound `Cc1n[nH]c2c1N=C(c1c(F)cccc1F)Nc1c-2cc(N2CCO[C@@H](C(C)(C)O)C2)nc1C` (single isomer, unassigned) [Example 39] came in with an IC50 in data set [1] of less than 1 nM. Further, the Kp uu in data set [2] is less than 0.1. For the same compound, in data set [3], the “Caco-2 ER” value was “L (L (Likely)”: ER≥2.5)”, the “Caco-2 A2B (10^−6 cm/s)” value is listed as “M (M (Moderate permeability)”: 1≤A2B (B2A)≤5)” and the “Caco-2 B2A (10^−6 cm/s)” value is reported as “H (H (High permeability)”: A2B (B2A)>5)”.

Regarding `Cc1n[nH]c2c1N=C(c1c(F)cccc1F)Nc1cnc(N3CCS(=O)(=O)CC3)cc1-2` [Example 2, 4-[8-(2,6-difluorophenyl)-5-methyl-3,4,7,9,12-pentazatricyclo[8.4.0.02,6]tetradeca-1(10),2(6),4,7,11,13-hexaen-13-y1]-1,4-thiazinane 1,1-dioxide], the IC50 in data set [1] is less than 1 nM. The compound also had a Kp uu in data set [2] of less than 0.1. In data set [3], the “Caco-2 ER” value is “L (L (Likely)”: ER≥2.5)”, the “Caco-2 A2B (10^−6 cm/s)” value is “L (L (Low permeability)”: A2B (B2A)<1)” and the “Caco-2 B2A (10^−6 cm/s)” value is “H (H (High permeability)”: A2B (B2A)>5)”.

`Cc1n[nH]c2c1N=C(c1c(F)cccc1F)Nc1cnc(N3C[C@@H]4C[C@H]3CO4)cc1-2` [Example 6, (1S,4S)-5-[8-(2,6-difluorophenyl)-5-methyl-3,4,7,9,12-pentazatricyclo[8.4.0.02,6]tetradeca-1(10),2(6),4,7,11,13-hexaen-13-y1]-2-oxa-5-azabicyclo[2.2.1]heptane]: the IC50 in data set [1] lay in the range of 1 to 100 nM. In data set [2], this compound had a Kp uu of less than 0.1. In data set [3], the “Caco-2 ER” value is recorded as “L (L (Likely)”: ER≥2.5)”, the “Caco-2 A2B (10^−6 cm/s)” value is recorded as “M (M (Moderate permeability)”: 1≤A2B (B2A)≤5)” and the “Caco-2 B2A (10^−6 cm/s)” value was “H (H (High permeability)”: A2B (B2A)>5)”.

Compound `[2H]C1([2H])OC([2H])([2H])C([2H])([2H])N(c2cc3c(cn2)NC(c2c(F)cccc2F)=Nc2c(C)n[nH]c2-3)C1([2H])[2H]` [Example 14, 2,2,3,3,5,5,6,6-octadeuterio-4-[8-(2,6-difluorophenyl)-5-methyl-3,4,7,9,12-pentazatricyclo[8.4.0.02,6]tetradeca-1(10),2(6),4,7,11,13-hexaen-13-yl]morpholine] yielded an IC50 in data set [1] of less than 1 nM. Further, the Kp uu in data set [2] is less than 0.1. Moreover, in data set [3], the “Caco-2 ER” value was “L (L (Likely)”: ER≥2.5)”, the “Caco-2 A2B (10^−6 cm/s)” value is given as “H (H (High permeability)”: A2B (B2A)>5)” and the “Caco-2 B2A (10^−6 cm/s)” value was “H (H (High permeability)”: A2B (B2A)>5)”.

With `Cc1n[nH]c2c1N=C(c1c(F)cccc1F)Nc1cnc(N3CCC[C@@H](C#N)C3)cc1-2` [Example 18, (3R)-1-[8-(2,6-difluorophenyl)-5-methyl-3,4,7,9,12-pentazatricyclo[8.4.0.02,6]tetradeca-1(10),2(6),4,7,11,13-hexaen-13-yl]piperidine-3-carbonitrile], the IC50 in data set [1] is less than 1 nM. In data set [2], this compound returned a Kp uu of less than 0.1. Moreover, in data set [3], the “Caco-2 ER” value is given as “L (L (Likely)”: ER≥2.5)”, the “Caco-2 A2B (10^−6 cm/s)” value was “M (M (Moderate permeability)”: 1≤A2B (B2A)≤5)” and the “Caco-2 B2A (10^−6 cm/s)” value is recorded as “H (H (High permeability)”: A2B (B2A)>5)”.

(Values after patent US20240228493A1, “LRRK2 INHIBITORS AND USES THEREOF” (NEURON23, ICN., priority 2022, published 2024).)
